# Reference: patent US20030110524A1, “TRANSGENIC ORGANISMS AND THEIR USES” (priority 1997, published 2003)
# How the values were obtained:
# [1] = test system: lung fibroblast cells derived from control rats; test: Survival of lung fibroblast cells from control rats with drugs; type: cell-based, rat; details: for Survival of lung fibroblast cells (related to number of cells in control cultures without drug): control rat cells, drugs added at day 2, geneticin 400 μg/ml, 5FC 100 μg/ml
# Method: (§1) Fibroblast cultures derived from lung of adult CD2/neo^r, TG/TK/neo^r and control animals were produced and expanded by routine methods (Freshney (1987), Alan R. Liss, New York). Twenty-four hours after plating, geneticin (400 μg/ml) was added to cultures originating from both types of transgenic rats and from control rats, and replaced every three days with fresh medium. When required, cells were subcultured (1:3) to prevent them becoming confluent, again by basic culture methods (Freshney 1987). Cell counts were made manually in 20 fields chosen randomly and the values at each time point, after allowing for changes due to subculturing, were aggregated. […] In the absence of added geneticin, no change in cell survival from either of the transgenic animals was observed.
# (§2) The effects of 5-fluorocytosine (5FC) were also determined. 5-fluorocytosine at a concentration of 100 μg/ml had no effect on fibroblast cells derived from control animals or from the TG/TK/neo^r transgenic. In the cells derived from the CD2/neo^r transgenic animal, however, 94% of the originally-plated cells died, or were non-functional (as determined by their failure to exclude trypan blue) after 10 days culture in the presence of 5FC (Table 2).
# (§3) Drugs were added at day 2 in culture. Values are related to the number of cells found in control cultures without drug additions at various times after plating, and allowing for dilutions resulting from passaging. Figures are the means of three separate determinations, the standard errors all being less than 15% of the mean.
# [2] = test system: lung fibroblast cells derived from TG/TK/neo^r transgenic rats; test: Survival of lung fibroblast cells from TG/TK/neo^r transgenic rats with drugs; type: cell-based, rat; details: for Survival of lung fibroblast cells (related to number of cells in control cultures without drug): TG/TK/neo^r rat cells, drugs added at day 2, geneticin 400 μg/ml, 5FC 100 μg/ml
# Method: as §1, §2, §3
# [3] = test system: lung fibroblast cells derived from CD2/neo^r transgenic rats; test: Survival of lung fibroblast cells from CD2/neo^r transgenic rats with drugs; type: cell-based, rat; details: for Survival of lung fibroblast cells (related to number of cells in control cultures without drug): CD2/neo^r rat cells, drugs added at day 2, geneticin 400 μg/ml, 5FC 100 μg/ml
# Method: as §1, §2, §3
# [4] = test system: thyroid cells derived from control rats; test: Survival of thyroid cells from control rats with drugs; type: cell-based, rat; details: for Survival of thyroid cells (related to number of cells in control cultures without drug): control rat cells, drugs added at day 2, geneticin 400 μg/ml, ACG 10 μg/ml
# Method: (§4) Thyroid cultures derived from the thyroid gland of adult CD2/neo^r, TG/TK/neo^r and control animals were produced by routine methods (Freshney, 1987). Twenty-four hours after plating, geneticin (400 μg/ml) was added to cultures originating from both types of transgenic and the control rats, and replaced every three days with fresh medium. When required, cells were subcultured (1:2) to prevent their becoming confluent. Cell counts were made manually in 20 fields chosen randomly, and the values at each time point, after allowing for changes due to subculturing, were aggregated (Table 3). […] Ten days later, cell counts were again made of 20 fields chosen at random. […] The results were as expected in view of the specific and non-specific expression of the positive and negative selection markers, in the TG/TK/neo^r and CD2/neo^r transgenics, respectively.
# as §3, with “allow” for “allowing”
# [5] = test system: thyroid cells derived from TG/TK/neo^r transgenic rats; test: Survival of thyroid cells from TG/TK/neo^r transgenic rats with drugs; type: cell-based, rat; details: for Survival of thyroid cells (related to number of cells in control cultures without drug): TG/TK/neo^r rat cells, drugs added at day 2, geneticin 400 μg/ml, ACG 10 μg/ml
# Method: as §4
# as §3, with “allow” for “allowing”
# [6] = test system: thyroid cells derived from CD2/neo^r transgenic rats; test: Survival of thyroid cells from CD2/neo^r transgenic rats with drugs; type: cell-based; details: CD2/neo^r rat cells, drugs added at day 2, geneticin 400 μg/ml, ACG 10 μg/ml
# Method: as §4
# as §3, with “allow” for “allowing”
# [7] = test system: thyroid follicle cells; test: Ablation of thyroid follicle cells in vivo; parameters: species or system rat
# [8] = transgenic rats treated with ACG for 12 days
compound,measurement,setting,value
"Nc1nc(=O)[nH]cc1F [5FC, 5-fluorocytosine]",Effect of 5-fluorocytosine on fibroblast cells,"[1]; control animals, 100 μg/ml",had no effect
same,Survival of lung fibroblast cells (related to number of cells in control cultures without drug),[1]; day 1 in culture,101
same,Survival of lung fibroblast cells (related to number of cells in control cultures without drug),[1]; day 3 in culture,105
same,Survival of lung fibroblast cells (related to number of cells in control cultures without drug),[1]; day 5 in culture,98
same,Survival of lung fibroblast cells (related to number of cells in control cultures without drug),[1]; day 7 in culture,97
same,Survival of lung fibroblast cells (related to number of cells in control cultures without drug),[1]; day 9 in culture,93
same,Survival of lung fibroblast cells (related to number of cells in control cultures without drug),[1]; day 11 in culture,96
same,Difference in cell counts between cultures in the absence and presence of 5FC,[1]; control rats,no significant difference in cell counts
same,Survival of lung fibroblast cells (related to number of cells in control cultures without drug),[2]; day 1 in culture,98
same,Survival of lung fibroblast cells (related to number of cells in control cultures without drug),[2]; day 3 in culture,96
same,Survival of lung fibroblast cells (related to number of cells in control cultures without drug),[2]; day 5 in culture,95
same,Survival of lung fibroblast cells (related to number of cells in control cultures without drug),[2]; day 7 in culture,92
same,Survival of lung fibroblast cells (related to number of cells in control cultures without drug),[2]; day 9 in culture,92
same,Survival of lung fibroblast cells (related to number of cells in control cultures without drug),[2]; day 11 in culture,93
same,Effect of 5-fluorocytosine on fibroblast cells,"[2]; TG/TK/neo^r transgenic, 100 μg/ml",had no effect
same,Survival of lung fibroblast cells (related to number of cells in control cultures without drug),[3]; day 1 in culture,94
same,Survival of lung fibroblast cells (related to number of cells in control cultures without drug),[3]; day 3 in culture,5
same,Survival of lung fibroblast cells (related to number of cells in control cultures without drug),[3]; day 5 in culture,3
same,Survival of lung fibroblast cells (related to number of cells in control cultures without drug),[3]; day 7 in culture,3
same,Survival of lung fibroblast cells (related to number of cells in control cultures without drug),[3]; day 9 in culture,4
same,Survival of lung fibroblast cells (related to number of cells in control cultures without drug),[3]; day 11 in culture,4
same,"Originally-plated cells died, or were non-functional (failure to exclude trypan blue)","[3]; CD2/neo^r transgenic, 100 μg/ml, after 10 days culture in the presence of 5FC",94%
"Nc1nc2c(ncn2COCCO)c(=O)[nH]1 [ACG, acycloguanosine]",Survival of thyroid cells under ACG treatment,"[4]; control animals, 10 μg/ml ACG",the cells derived from the control animals did
same,Survival of thyroid cells (related to number of cells in control cultures without drug),[4]; day 1 in culture,94
same,Survival of thyroid cells (related to number of cells in control cultures without drug),[4]; day 3 in culture,97
same,Survival of thyroid cells (related to number of cells in control cultures without drug),[4]; day 5 in culture,98
same,Survival of thyroid cells (related to number of cells in control cultures without drug),[4]; day 7 in culture,91
same,Survival of thyroid cells (related to number of cells in control cultures without drug),[4]; day 9 in culture,92
same,Survival of thyroid cells (related to number of cells in control cultures without drug),[4]; day 11 in culture,102
same,Survival of thyroid cells (related to number of cells in control cultures without drug),[5]; day 1 in culture,98
same,Survival of thyroid cells (related to number of cells in control cultures without drug),[5]; day 3 in culture,38
same,Survival of thyroid cells (related to number of cells in control cultures without drug),[5]; day 5 in culture,12
same,Survival of thyroid cells (related to number of cells in control cultures without drug),[5]; day 7 in culture,10
same,Survival of thyroid cells (related to number of cells in control cultures without drug),[5]; day 9 in culture,8
same,Survival of thyroid cells (related to number of cells in control cultures without drug),[5]; day 11 in culture,7
same,Survival of thyroid cells under ACG treatment,"[5]; TG/TK/neo^r transgenic, 10 μg/ml ACG",did not survive ACG treatment
same,Survival of thyroid cells (related to number of cells in control cultures without drug),[6]; day 1 in culture,98
same,Survival of thyroid cells (related to number of cells in control cultures without drug),[6]; day 3 in culture,90
same,Survival of thyroid cells (related to number of cells in control cultures without drug),[6]; day 5 in culture,93
same,Survival of thyroid cells (related to number of cells in control cultures without drug),[6]; day 7 in culture,93
same,Survival of thyroid cells (related to number of cells in control cultures without drug),[6]; day 9 in culture,97
same,Survival of thyroid cells (related to number of cells in control cultures without drug),[6]; day 11 in culture,88
same,Effect on T3 and T4,[7]; lower amounts of ACG per day,partial loss of T3 and T4
same,Serum level of T4,"[7]; transgenic adult female rats, 50 mg ACG per day i.p. for 5 days, seven days after the final injection, N=6",less than 2.5 nM
same,Histochemical analysis of thyroid glands,[7]; [8],almost complete loss of follicular cells
same,"Thyroid gland weight, of the original weights",[7]; [8],7%
